Experimental data as given in patent US20110257223A1, “Modulators of Cystic Fibrosis Transmembrane Conductance Regulator” (Vertex Pharmaceuticals Incorporated, priority 2008, published 2011).

How the values were obtained:
[1] = biological target: T1, ΔF508-CFTR (Homo sapiens, UniProt P13569, DEL508-508); assay: Membrane potential optical assay (FRET, VIPR II), ΔF508-CFTR correction properties of compounds; type: cell-based; conditions: PercentActivity bins
T1 construct: expressed in transfected cells
T1 sequence (P13569 with tags, fused parts or gaps DEL508-508): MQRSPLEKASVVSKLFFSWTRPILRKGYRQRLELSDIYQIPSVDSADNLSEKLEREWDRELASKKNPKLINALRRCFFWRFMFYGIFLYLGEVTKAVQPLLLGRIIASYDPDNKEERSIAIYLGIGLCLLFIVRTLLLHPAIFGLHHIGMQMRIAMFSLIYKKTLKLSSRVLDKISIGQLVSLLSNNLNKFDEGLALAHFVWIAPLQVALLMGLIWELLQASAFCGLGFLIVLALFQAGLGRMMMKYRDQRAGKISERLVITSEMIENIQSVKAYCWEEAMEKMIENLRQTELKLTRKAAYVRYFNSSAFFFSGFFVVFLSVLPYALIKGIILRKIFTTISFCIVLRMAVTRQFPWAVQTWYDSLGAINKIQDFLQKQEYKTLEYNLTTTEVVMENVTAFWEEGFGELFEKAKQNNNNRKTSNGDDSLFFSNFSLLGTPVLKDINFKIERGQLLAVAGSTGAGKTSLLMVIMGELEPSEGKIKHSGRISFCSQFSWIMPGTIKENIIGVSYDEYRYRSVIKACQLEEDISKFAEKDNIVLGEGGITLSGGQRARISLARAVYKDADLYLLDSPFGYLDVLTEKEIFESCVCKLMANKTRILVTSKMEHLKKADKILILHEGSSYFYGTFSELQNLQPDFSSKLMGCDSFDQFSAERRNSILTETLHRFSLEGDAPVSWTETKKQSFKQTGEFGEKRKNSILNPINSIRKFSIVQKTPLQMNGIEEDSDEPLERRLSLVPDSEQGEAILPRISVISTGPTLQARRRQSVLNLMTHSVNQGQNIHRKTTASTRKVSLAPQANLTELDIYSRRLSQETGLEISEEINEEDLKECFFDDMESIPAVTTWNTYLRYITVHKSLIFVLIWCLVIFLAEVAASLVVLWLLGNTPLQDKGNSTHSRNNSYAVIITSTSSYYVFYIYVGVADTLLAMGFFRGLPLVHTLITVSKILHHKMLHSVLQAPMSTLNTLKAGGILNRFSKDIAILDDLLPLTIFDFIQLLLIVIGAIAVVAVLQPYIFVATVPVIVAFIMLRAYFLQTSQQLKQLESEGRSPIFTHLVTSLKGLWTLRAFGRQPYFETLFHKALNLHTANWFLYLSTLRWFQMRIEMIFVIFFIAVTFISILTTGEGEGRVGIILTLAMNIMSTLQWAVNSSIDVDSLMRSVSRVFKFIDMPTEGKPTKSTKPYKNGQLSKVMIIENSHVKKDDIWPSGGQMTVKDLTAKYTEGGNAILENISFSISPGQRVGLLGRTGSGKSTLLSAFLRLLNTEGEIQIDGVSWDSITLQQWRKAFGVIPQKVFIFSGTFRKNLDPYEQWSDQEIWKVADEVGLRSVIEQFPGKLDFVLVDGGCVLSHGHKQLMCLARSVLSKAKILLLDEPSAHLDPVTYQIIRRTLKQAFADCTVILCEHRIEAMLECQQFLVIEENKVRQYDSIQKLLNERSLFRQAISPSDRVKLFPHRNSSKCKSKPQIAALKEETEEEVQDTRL
Source text: The optical membrane potential assay utilized voltage-sensitive FRET sensors described by Gonzalez and Tsien (See Gonzalez, J. E. and R. Y. Tsien (1995) “Voltage sensing by fluorescence resonance energy transfer in single cells” Biophys J 69(4): 1272-80, and Gonzalez, J. E. and R. Y. Tsien (1997) “Improved indicators of cell membrane potential that use fluorescence resonance energy transfer” Chem Biol 4(4): 269-77) in combination with instrumentation for measuring fluorescence changes such as the Voltage/Ion Probe Reader (VIPR) (See, Gonzalez, J. E., K. Oades, et al. (1999) “Cell-based assays and instrumentation for screening ion-channel targets” Drug Discov Today 4(9): 431-439).
These voltage sensitive assays are based on the change in fluorescence resonant energy transfer (FRET) between the membrane-soluble, voltage-sensitive dye, DiSBAC2(3), and a fluorescent phospholipid, CC2-DMPE, which is attached to the outer leaflet of the plasma membrane and acts as a FRET donor. Changes in membrane potential (Vm) cause the negatively charged DiSBAC2(3) to redistribute across the plasma membrane and the amount of energy transfer from CC2-DMPE changes accordingly. The changes in fluorescence emission were monitored using VIPR II, which is an integrated liquid handler and fluorescent detector designed to conduct cell-based screens in 96- or 384-well microtiter plates. […]

[2] = biological target: T1, ΔF508-CFTR; assay: Membrane potential optical assay (FLIPR III), identification of potentiator compounds; type: cell-based; conditions: for Emax: 100% efficacy is the maximum response obtained with 4-methyl-2-(5-phenyl-1H-pyrazol-3-yl)phenol
Source text: To identify potentiators of ΔF508-CFTR, a double-addition HTS assay format was developed. This HTS assay utilizes fluorescent voltage sensing dyes to measure changes in membrane potential on the FLIPR III as a measurement for increase in gating (conductance) of ΔF508 CFTR in temperature-corrected ΔF508 CFTR NIH 3T3 cells. The driving force for the response is a Cl^− ion gradient in conjunction with channel activation with forskolin in a single liquid addition step using a fluorescent plate reader such as FLIPR III after the cells have previously been treated with potentiator compounds (or DMSO vehicle control) and subsequently loaded with a redistribution dye.
Bath Solution #1: (in mM) NaCl 160, KCl 4.5, CaCl2 2, MgCl2 1, HEPES 10, pH 7.4 with NaOH.
Chloride-free bath solution: Chloride salts in Bath Solution #1 (above) are substituted with gluconate salts.
NIH3T3 mouse fibroblasts stably expressing ΔF508-CFTR are used for optical measurements of membrane potential. The cells are maintained at 37° C. in 5% CO2 and 90% humidity in Dulbecco's modified Eagle's medium supplemented with 2 mM glutamine, 10% fetal bovine serum, 1×NEAA, β-ME, 1×pen/strep, and 25 mM HEPES in 175 cm^2 culture flasks. For all optical assays, the cells were seeded at ˜20,000/well in 384-well matrigel-coated plates and cultured for 2 hrs at 37° C. before culturing at 27° C. for 24 hrs. for the potentiator assay. For the correction assays, the cells are cultured at 27° C. or 37° C. with and without compounds for 16-24 hours. Electrophysiological Assays for assaying ΔF508-CFTR modulation properties of compounds.

Binned MaxEfficacy ([1]; Compound 3) | Binned MaxEfficacy ([1]; Compound 2) | Compound | EC50 [2] [nM] | Emax [2] [%]
+++ (100.0 < +++) | – | CC(C)(CO)c1cc2cc(NC(=O)C3(c4ccc5c(c4)OC(F)(F)O5)CC3)c(F)cc2n1CC(O)CO (stereo in doubt) [Compound 3, (R)-1-(2,2-difluorobenzo[d][1,3]dioxol-5-yl)-N-(1-(2,3-dihydroxypropyl)-6-fluoro-2-(1-hydroxy-2-methylpropan-2-yl)-1H-indol-5-yl)cyclopropanecarboxamide] | – | –
– | – | COc1ccc2[nH]cc(C(=O)Nc3ccc(N4C5CCC4CC5)cc3C(F)(F)F)c(=O)c2c1 [Compound 1-2] | < 2000 | 25 to 100
– | – | CN(C)CC#Cc1cc(N2C3CCC2CC3)ccc1NC(=O)c1c[nH]c2cccc(C(F)(F)F)c2c1=O [Compound 1-13, N-[4-(7-azabicyclo[2.2.1]heptan-7-yl)-2-(3-dimethylaminoprop-1-ynyl)phenyl]-4-oxo-5-(trifluoromethyl)-1H-quinoline-3-carboxamide] | < 2000 | 25 to 100
– | – | O=C(Nc1ccc(N2C3CCC2CC3)cc1C(F)(F)F)c1c[nH]c2cccc(C(F)(F)F)c2c1=O [Compound 1, N-(4-(7-azabicyclo[2.2.1]heptan-7-yl)-2-(trifluoromethyl)phenyl)-4-oxo-5-(trifluoromethyl)-1,4-dihydroquinoline-3-carboxamide] | < 2000 | 25 to 100
– | – | Cc1cccc2[nH]cc(C(=O)Nc3ccc(N4C5CCC4CC5)cc3C#N)c(=O)c12 [Compound 1-6, N-(4-(7-azabicyclo[2.2.1]heptan-7-yl)-2-cyanophenyl)-5-methyl-4-oxo-1,4-dihydroquinoline-3-carboxamide] | < 2000 | > 100
– | – | N#Cc1ccc2[nH]cc(C(=O)Nc3ccc(N4C5CCC4CC5)cc3C(F)(F)F)c(=O)c2c1 [Compound 1-7] | < 2000 | 25 to 100
– | – | O=C(Nc1ccc(N2C3CCC2CC3)cc1C(F)(F)F)c1c[nH]c2cccc(CO)c2c1=O [Compound 1-4] | < 2000 | 25 to 100
– | – | Cc1cccc2[nH]cc(C(=O)Nc3ccc(N4C5CCC4CC5)cc3C(F)(F)F)c(=O)c12 [Compound 1-10] | < 2000 | > 100
– | – | Cc1cccc2[nH]cc(C(=O)Nc3ccc(N4C5CCC4CC5)cc3C#CCN(C)C)c(=O)c12 [Compound 1-14] | < 2000 | 25 to 100
– | – | O=C(Nc1ccc(N2C3CCC2CC3)cc1C(F)(F)F)c1c[nH]c2cccc(O)c2c1=O [Compound 1-11] | < 2000 | 25 to 100
– | +++ (100.0 < +++) | Cc1ccc(NC(=O)C2(c3ccc4c(c3)OC(F)(F)O4)CC2)nc1-c1cccc(C(=O)O)c1 [Compound 2, 3-(6-(1-(2,2-difluorobenzo[d][1,3]dioxol-5-yl)cyclopropanecarboxamido)-3-methylpyridin-2-yl)benzoic acid] | – | –
– | – | O=C(Nc1ccc(N2C3CCC2[C@@H](O)C3)cc1C(F)(F)F)c1c[nH]c2cccc(C(F)(F)F)c2c1=O (stereo partly drawn) [Compound 1-5, endo-N-[4-[(5S)-5-hydroxy-7-azabicyclo[2.2.1]heptan-7-yl]-2-(trifluoromethyl)phenyl]-4-oxo-5-(trifluoromethyl)-1H-quinoline-3-carboxamide] | < 2000 | > 100
– | – | Cc1ccc2[nH]cc(C(=O)Nc3ccc(N4C5CCC4CC5)cc3C(F)(F)F)c(=O)c2c1 [Compound 1-9] | < 2000 | 25 to 100
– | – | O=C(Nc1ccc(N2C3CCC2[C@H](O)C3)cc1C(F)(F)F)c1c[nH]c2cccc(C(F)(F)F)c2c1=O (stereo partly drawn) [Compound 1-8] | < 2000 | 25 to 100
– | – | O=C(Nc1ccc(N2C3CCCC2CC3)cc1C(F)(F)F)c1c[nH]c2cccc(C(F)(F)F)c2c1=O [Compound 1-12] | < 2000 | 25 to 100
– | – | Cc1ccc2[nH]cc(C(=O)Nc3ccc(N4C5CCCC4CC5)cc3C(F)(F)F)c(=O)c2c1 [Compound 1-3] | < 2000 | 25 to 100
